Test results from patent US8114581B2, “Methods and compositions for detecting neoplastic cells” (The Regents of the University of California, priority 2005, dated 2012).

How the values were obtained:
Format in all cases: cell-based
[1] = molecular target: T1, Src (Homo sapiens, UniProt P12931); assay: EGF-induced FRET response of Src reporter in HeLa cells
T1 construct: endogenous in cells; host or cells: HeLa
Method: The HeLa or MEF cells expressing the desired exogenous proteins were starved with 0.5% FBS for 36-48 h before being subjected to EGF (50 ng ml^−1) or PDGF (10 ng ml^−1) stimulation. During imaging, the cells were maintained in Hanks' balanced salt solution (HBSS) with 20 mMHEPES (pH 7.4) and 2 g 1^−1 D-glucose at 25° C. Images were collected by using MetaFluor 6.0 software (Universal Imaging) with a 440DF20 excitation filter, a 455DRLP dichroic mirror, and two emission filters controlled by a filter changer (480DF30 for CFP and 535DF25 for YFP).
The various plasmids were transfected into HeLa, MEF, SYF−/−, or 293 cells at 80% confluence using the lipofectamine method (Invitrogen). The RetroMax retroviral expression system (Imgenex) was used to introduce genes into HUVECs. Various Src reporters incorporated in PCLNCX vector were co-transfected with PCL-Ampho packaging vector into 293 cells by using lipofectamine. The supernatant of […] 293 cells was collected after 2 days of transfection and filtered through 0.45 um pore filters. HUVECs were infected with 1:1 mixture of the collected supernatant and fresh EGM in the presence of 8 ug/ml polybrene.

[2] = molecular target: T1, Src; assay: Fibronectin-coated bead / laser-tweezer force-induced FRET response in HUVECs; details: HUVECs expressing Src reporter, PP1 10 uM
Method: (§1) To image the mechanical-force-induced Src activation, HUVECs were first starved with 0.5% FBS for 24 h and then kept in CO2-independent medium without serum (Gibco BRL) at 37° C. in a thermostatic chamber. A Zeiss axiovert inverted microscope equipped with a 440DF20 excitation filter and a 455DRLP dichroic mirror was integrated with the laser-tweezers. CFP and YFP emission images were acquired simultaneously with an ORCA ER CCD camera (Hamamatsu) through a Dual-View module (Optical-Insights). The CFP and YFP images were aligned pixel-by-pixel with our customized Matlab program by maximizing the normalized cross correlation coefficient of CFP and YFP fluorescence intensity images:
(§2) By taking the derivative of rho 2/B(κ) in Otsu's method 30 and calculating its first local minimum, a non parametric method was developed to calculate the intensity threshold to differentiate the edges of HUVECs from the background in CFP or YFP fluorescence intensity images. The intensity threshold was used to generate a binary mask image with values outside the cell set at zero to select the pixels located within the cell body in the CFP/YFP emission ratio images. […] For statistical analysis of long-range activation of Src, a pixel located within a cell at a given time is defined as ‘distally activated’ when: (1) its emission ratio value is above a certain percentage (98%, 90%, 80% and 50% were used as the thresholds) of pixel population in the same cell after 15 min of force stimulation, and (2) the distance between the pixel and the centre of the force-imposed bead is larger than half of the virtual radius of the cell, as shown in the following formula: […]
(§3) This critical force is a measure of the maximum trapping force, at a given laser power, exerted on the bead. […] Since the maximum trapping force occurs when the laser focus is away from the center and close to the edge of the bead, the experimental trapping force with the laser focused at 3.7 um off the bead center in our experiments was calculated from the Ashkin model of trapping force to be 300 pN. […]

[3] = test system: Src; assay: as above; details: HUVECs, membrane-targeted reporter, 300 pN; 1 hr incubation (cytochalasin D 0.2 uM, Nocodazole 1 uM); distal, but not local, responses
Method: as §1, §2, §3

T1 sequence (P12931 whole entry, species assumed): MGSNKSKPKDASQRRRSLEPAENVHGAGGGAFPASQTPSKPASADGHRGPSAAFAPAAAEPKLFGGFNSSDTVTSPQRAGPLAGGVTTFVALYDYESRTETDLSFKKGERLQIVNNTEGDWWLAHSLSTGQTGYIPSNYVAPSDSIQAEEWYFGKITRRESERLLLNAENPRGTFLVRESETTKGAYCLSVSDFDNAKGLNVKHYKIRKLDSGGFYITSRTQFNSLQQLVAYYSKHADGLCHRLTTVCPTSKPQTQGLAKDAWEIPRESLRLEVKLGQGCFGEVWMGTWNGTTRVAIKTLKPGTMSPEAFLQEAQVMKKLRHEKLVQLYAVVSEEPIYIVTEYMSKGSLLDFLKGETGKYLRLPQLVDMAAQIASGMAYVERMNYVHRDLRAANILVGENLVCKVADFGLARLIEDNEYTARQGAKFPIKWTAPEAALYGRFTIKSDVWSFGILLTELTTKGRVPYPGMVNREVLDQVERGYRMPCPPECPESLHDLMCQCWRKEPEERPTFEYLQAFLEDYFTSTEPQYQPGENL

Row | effect on EGF-induced FRET response of membrane-targeted reporter, inhibitor added after EGF ([1]; EGF 50 ng/ml, PP1 10 uM) | effect on EGF-induced FRET response of membrane-targeted reporter, pretreatment with inhibitor ([1]; PP1 10 uM for 1 hr before EGF 50 ng/ml) | effect on EGF-induced FRET response of Src reporter, inhibitor added after EGF ([1]; cytosolic Src reporter) | effect on EGF-induced FRET response of Src reporter, pretreatment with inhibitor ([1]; cytosolic Src reporter) | effect on local FRET response caused by fibronectin-coated beads [2] | Compound | effect on force-induced distal FRET responses [3]
1 | reversed | prevented | reversed | markedly reduced | reversible | Cc1ccc(-c2nn(C(C)(C)C)c3ncnc(N)c23)cc1 [PP1] | –
2 | – | – | – | – | – | COC(=O)Nc1nc2ccc(C(=O)c3cccs3)cc2[nH]1 [nocodazole] | blocked
3 | – | – | – | – | – | C=C1[C@@H](C)[C@H]2[C@H](Cc3ccccc3)NC(=O)[C@]23[C@H](OC(C)=O)/C=C/[C@@](C)(O)C(=O)[C@@H](C)C/C=C/[C@H]3[C@@H]1O [cytochalasin D] | blocked
